According to patent US10059663B2, “Aromatic compound and use thereof” (Kyoto Pharmaceutical Industries, Ltd., priority 2013, dated 2018):

Key:
[1] = system: Mouse bone marrow-derived mesenchymal cell line ST2 cells; test: Osteoblast differentiation test (alkaline phosphatase activity); format: cell-based; conditions: ST-2, 96 h, at 0.1 μg/mL, 4 days of culture, absorbance at 405 nm, DMSO control = 100%, read-out: alkaline phosphatase activity (increase rate in absorbance, control as 100%)
Protocol: Mouse bone marrow-derived mesenchymal cell line ST2 cells (source of supply: RIKEN) were seeded in α-MEM medium containing 10% fetal bovine serum (source of supply: GIBCO BRL Cat. No. 12000-022) in a 96 well plate at a cell density of 4×10^3 cells/0.1 mL/well, and cultured for 24 hr under the conditions of 37° C., 5% CO2. Then, each test compound was added at a final concentration of 0.001-10 μM, and the final concentration 0.1% (v/v) of DMSO was added to the control. After 4 days of culture, alkaline phosphatase (ALP) activity was measured by the following method.
The medium in the cultured 96 well plate was removed, the cells were washed with PBS buffer (KCl 0.2 g/L, KH2PO4 0.2 g/L, Na2HPO4.12H2O 2.9 g/L, NaCl 8 g/L) (100 μL/well), cell lysate (10 mM MgCl2, 2% (v/v) Triton X-100) (50 μL/well) was added, and the mixture was stirred at room temperature for 3 min. A substrate solution (50 mM diethanolamine (Wako Pure Chemical Industries, Ltd. Cat. No. 099-03112), 20 mM […] (Nacalai Tesque Cat. No. 25019-81)) (50 μL/well) was added, and the mixture was left standing at room temperature for 9 min. 1N NaOH 50 μL/well was added to discontinue the reaction, and the absorbance at 405 nm was measured by a microplate reader (Dainippon Pharmaceutical Co., Ltd.)
An increase rate (%) in the absorbance by the test compound was calculated based on the absorbance of the control as 100%, and the differentiation degree of the osteoblast was evaluated.

female F344 rats = test: Influence on bone density (ovariectomy, femur, DXA); format: in vivo, rat; conditions: at not more than 10 mg/kg; orally once per day, 6 or 7 days per week, 8 weeks; ovariectomized 12-week-old female F344 rats; femur by DXA
Excerpt: 12-week-old female F344 rats (SLC) underwent ovariectomy or sham surgery under anesthesia. The test compound was suspended in 0.5% methylcellulose solution (Wako Pure Chemical Industries, Ltd. Cat. No. 133-14255) and orally administered once per day, 6 or 7 days per week, from two days after the surgery. A 0.5% methylcellulose solution was orally administered to a control group. At 8 weeks from the administration, they were euthanized by drawing the whole blood from the abdominal artery under anesthesia, and the left and right femurs were excised.
The soft tissues were removed from the excised femurs, and the bone density was measured by DXA device DCS-600R (Aloka Co., Ltd.). The bone density was evaluated for the whole femur as well as the whole divided into three equal portions of proximal end, diaphysis and distal end portion.

| Compound | activity at 0.1 µg/mL [1] [%] | bone density (female F344 rats) |
| --- | --- | --- |
| COc1cc(Nc2ccc(N3CC(OCCO)C3)cc2)c(NC(C)=O)cn1 [Example 1, N-(4-{4-[3-(2-hydroxyethoxy)azetidin-1-yl]phenylamino}-6-methoxypyridin-3-yl)acetamide] | ≥ 200 | significantly increased |
| CC(=O)c1ccc(C(N)=O)cc1Oc1ccc(OCCOC2CCOCC2)cc1 [Example 32, 4-acetyl-3-{4-[2-(tetrahydropyran-4-yloxy)ethoxy]phenoxy}benzamide] | ≥ 200 | significantly increased |
| CC(O)c1ccc(C(N)=O)cc1Oc1ccc(OCCOC2CCOCC2)cc1 (stereo not shown) [Example 38, 4-(1-hydroxyethyl)-3-{4-[2-(tetrahydropyran-4-yloxy)ethoxy]phenoxy}benzamide] | ≥ 200 | significantly increased |
| CC(=O)c1ccc(C(N)=O)cc1Oc1ccc(COCCOC(C)C)cc1 [Example 40, 4-acetyl-3-[4-(2-isopropoxyethoxymethyl)phenoxy]benzamide] | ≥ 200 | – |
| CC(=O)c1ccc(C(N)=O)cc1Oc1ccc(COC2CCOCC2)cc1 [Example 41, 4-acetyl-3-[4-(tetrahydropyran-4-yloxymethyl)phenoxy]benzamide] | ≥ 200 | – |
| C[C@@H](O)c1ccc(C(N)=O)cc1Oc1ccc(OCCOC2CCOCC2)cc1 [Example 43, (R)-4-(1-hydroxyethyl)-3-{4-[2-(tetrahydropyran-4-yloxy)ethoxy]phenoxy}benzamide] | ≥ 200 | significantly increased |
| CCC(=O)Nc1cnc(OC)cc1Nc1ccc(N2CC(OCCO)C2)cc1 [Example 45] | ≥ 200 | – |
| NC(=O)c1ccc(C(F)(F)F)c(Nc2ccc(N3CC(OCCO)C3)cc2)c1 [Example 47] | ≥ 200 | – |
| CNC(=O)c1ccc([N+](=O)[O-])c(Nc2ccc(N3CC(OCCO)C3)cc2)c1 [Example 48] | ≥ 200 | – |
| NC(=O)c1ccc([N+](=O)[O-])c(Nc2ccc(OCCOC3CCOCC3)cc2)c1 [Example 50] | ≥ 200 | – |
| CC(=O)c1ccc(C(N)=O)cc1Nc1ccc(OCCOC2CCOC2)cc1 (stereo not shown) [Example 53] | ≥ 200 | – |
| CC(=O)c1ccc(C(N)=O)c(Nc2ccc(OCCOC3CCOCC3)cc2)c1 [Example 57] | ≥ 200 | – |
| CC(=O)c1ccc(C(N)=O)c(Nc2ccc(OCCOC3CCS(=O)(=O)CC3)cc2)c1 [Example 58] | ≥ 200 | – |
| NC(=O)c1ccc(C(F)(F)F)c(Oc2ccc(N3CC(OCCO)C3)cc2)c1 [Example 62] | ≥ 200 | – |
| NC(=O)c1ccc([N+](=O)[O-])c(Oc2ccc(N3CCC(OCCO)CC3)cc2)c1 [Example 63] | ≥ 200 | – |
| NC(=O)c1ccc(C(F)(F)F)c(Oc2ccc(OCCOC3CCOCC3)cc2)c1 [Example 64] | ≥ 200 | – |
| CC(C)OCCOCCOc1ccc(Oc2cc(C(N)=O)ccc2C(F)(F)F)cc1 [Example 65] | ≥ 200 | – |

| Compound | activity at 0.1 µg/mL [1] [%] | bone density (female F344 rats) |
| --- | --- | --- |
| CC(=O)c1ccc(C(N)=O)cc1Oc1ccc(CCCOC2CCOCC2)cc1 [Example 66] | ≥ 200 | – |
| CC(=O)c1ccc(C(N)=O)cc1Oc1ccc(OCCOC2CCOC2)cc1 (stereo not shown) [Example 67] | ≥ 200 | significantly increased |
| CC(=O)c1ccc(C(N)=O)c(Oc2ccc(OCCOC3CCOCC3)cc2)c1 [Example 70] | ≥ 200 | – |
| CC(F)(F)c1ccc(C(N)=O)cc1Oc1ccc(OCCOC2CCOCC2)cc1 [Example 74] | ≥ 200 | – |
| C[C@@H](O)c1ccc(C(N)=O)cc1Oc1ccc(OCCOC2CCOC2)cc1 (stereo partly shown) [Example 77] | ≥ 200 | significantly increased |
| NC(=O)c1ccc(C(F)(F)F)c(Oc2ccc(COC3CCOCC3)cc2)c1 [Example 82] | ≥ 200 | – |
| NC(=O)c1ccc(C(F)F)c(Oc2ccc(COC3CCOCC3)cc2)c1 [Example 83] | ≥ 200 | – |
| C[C@@H](O)c1ccc(C(N)=O)cc1Oc1ccc(N2CC(OCCO)C2)cc1 [Example 85] | ≥ 200 | – |
| COc1cc(Nc2ccc(N3CC(O)C3)cc2)c(NC(C)=O)cn1 [Example 88] | ≥ 200 | – |
| COc1cc(Nc2ccc(N3CC(OCC4CCCO4)C3)cc2)c(NC(C)=O)cn1 (stereo not shown) [Example 89] | ≥ 200 | – |
| NC(=O)c1ccc([N+](=O)[O-])c(Nc2ccc(N3CC(OCC4CCCO4)C3)cc2)c1 (stereo not shown) [Example 90] | ≥ 200 | – |
| CC(=O)Nc1ccc(C(N)=O)cc1Nc1ccc(N2CC(OCC3CCCO3)C2)cc1 (stereo not shown) [Example 91] | ≥ 200 | – |
| CC(=O)c1ccc(C(N)=O)cc1Nc1ccc(N2CC(OCC3CCCO3)C2)cc1 (stereo not shown) [Example 92] | ≥ 200 | – |
| C[C@@H](O)c1ccc(C(N)=O)cc1Oc1ccc(N2CC(CO)C2)cc1 [Example 94] | ≥ 200 | – |
| CC(=O)c1ccc(C(N)=O)cc1Oc1ccc(N2CC(CO)C2)cc1 [Example 95] | ≥ 200 | – |
| CC(=O)c1ccc(C(N)=O)cc1Oc1ccc(N2CC(O)C2)cc1 [Example 96] | ≥ 200 | – |
| CC(=O)c1ccc(C(N)=O)cc1Oc1ccc(N2CCC2)cc1 [Example 97] | ≥ 200 | – |
